From article PMC12451337 (ESMO Open, 2025)
Where “and” joins values, the source holds several entries; their conditions need not be identical. Identical values can stand only once.

Key:
[1] = tested on: patients with advanced solid tumors; experiment: Phase I dose-escalation trial: safety and tolerability (TEAEs, DLTs, MTD, RP2D)
Protocol: The study was carried out in compliance with the International Council for Harmonisation Good Clinical Practices, including the ethical principles of the Declaration of Helsinki. All patients provided signed informed consent before any study-specific procedures were carried out.
For determination of dose escalation, all toxicities, all available PK, and other relevant patient data occurring during the first cycle were considered. In addition, safety in patients ongoing in repeat cycles at lower doses was also taken into consideration by the Cohort Review Committee (CRC; consisting of investigators and the medical monitor), when making dose-escalation decisions. The determination of RP2D included the assessment of acute and chronic toxicities and tolerability (missing doses, dose reductions, etc.) and was informed by the experience of the totality of data. The maximum tolerated dose (MTD) was defined as the highest dose level at which one or fewer of six patients experienced dose-limiting toxicities (DLTs). […] A dose reduction at or after cycle 2 was granted in accordance with dose modification guidelines if, in the opinion of the investigator, a dose reduction was in the best interest of the patient.
Safety was monitored throughout the study.

[2] = tested on: polyamine transport in T cells; experiment: Whole blood assay: uptake of fluorescently labeled spermine analog by activated T cells (flow cytometry); type: cell-based, human
Protocol: To evaluate the target engagement activity of AMXT 1501 after administration, an ex vivo pharmacodynamic assay assessing lymphocyte spermine uptake and inhibition of uptake by AMXT 1501 was developed.
The purpose of the whole blood assay is to quantify the inhibition of polyamine transport in T cells in human subjects receiving AMXT 1501. Whole blood collected from subjects receiving AMXT 1501 was diluted with serum-free media and stimulated with anti-CD3 and anti-CD28 to drive T-cell activation and proliferation for a total of 3 days. During the last 12-18 h of culture, a fluorescently labeled spermine analog (compound 5)[38] was added to the in vitro culture to monitor polyamine uptake into cells. The functional activity (inhibitory effect) of AMXT 1501 on compound 5 uptake by T cells is then determined using flow cytometry by measuring the frequency and mean fluorescence intensity of compound 5+ T cells. Comparisons were made between the uptake in the pretreatment sample and samples taken over time postdose.
An ex vivo blood-based pharmacodynamic assay was developed to measure the inhibition of uptake of a fluorescently labeled polyamine analog by AMXT 1501 into activated CD4+ lymphocytes in culture. Using a fluorescence-activating cell sorting system, tracking of the cellular uptake of the fluorescence of this labeled polyamine was followed after CD3/CD28 activation.

tumor cells in culture = experiment: Predicted ED95 against tumor cells in culture (nonclinical data); type: cell-based
polyamine transport = tested on: polyamine transport; set-up: method as in PMID 19281226; settings: without crossing the cell membrane; cited from earlier work
clinical = settings: human, oral
Protocol: (§1) Blood was obtained from all patients and collected in anticoagulant tubes (K2-EDTA). Plasma samples were stored at −80°C until analysis (both drugs were validated as stable under these storage conditions). The PK analysis population included all patients who received at least one dose of AMXT 1501 and had at least one quantifiable AMXT 1501 plasma concentration postdose.

[3] = Pharmacokinetics in patients (plasma and tumor biopsy, LC-MS/MS)
Protocol: as §1

[4] = whole human blood samples treated with 0-2000 nM AMXT 1501, absence of DFMO

CCCCCCCCCCCCCCCC(=O)NCCCC[C@@H](N)C(=O)NCCCNCCCCNCCCN [AMXT 1501, AMXT 1501 dicaprate]
AMXT 1501 dose relationship with proportions of patients with TEAEs, treatment-related TEAEs or SAEs, discontinuation, dose interruption ([1]; human, in vivo): no strong evidence for any AMXT 1501 dose relationship
RP2D of AMXT 1501 in the combination ([1]; in combination with DFMO 500 mg b.i.d.): 600 mg b.i.d.
MTD ([1]; part 1, when given with DFMO 250 mg b.i.d.): 1800 mg o.d.
Part 1 AMXT 1501 recommended phase II dose (RP2D) ([1]; part 1, with DFMO 250 mg b.i.d.): 1800 mg o.d.
Inhibition of fluorescent marker transport with DFMO added to the culture ([2]; DFMO added to the culture): still able to potently inhibit this transport
Target engagement in samples taken over time following dosing versus pretreatment ([2]; ex vivo, patients' blood after oral dosing): sustained AMXT 1501 target engagement activity
Concentration of maximal fluorescent-labeled spermine uptake inhibition [2, 4]: 250 nM
half maximum inhibitory concentration (ED50) [2, 4]: ~75 nM
predicted effective dose 95% (ED95) (tumor cells in culture; in combination with DFMO, nonclinical data): 100 nM
Blocks cellular uptake of spermidine (polyamine transport): nanomolar range
Kp (clinical; tumor biopsy / plasma): 12
concentration at 30 days of treatment (clinical; tumor biopsy): 3480 ng/mL and 6.12 µM
AMXT 1501 exposure based on mean Cmax versus dose ([3]; human, in vivo): near dose-proportional
Accumulation of AMXT 1501 after repeat dosing ([3]; human, in vivo): up to 10 fold
Effect of DFMO administration on AMXT 1501 exposure ([3]; human, in vivo): no consistent effect
Predose AMXT 1501 plasma concentration ([3]; human, in vivo): 296 ng/mL
AMXT 1501 steady state obtained by ([3]; human, in vivo, po): cycle 1 day 14

NCCCC(N)(C(=O)O)C(F)F (centres unmarked) [DFMO, difluoromethylornithine, reference compound]
Effect of DFMO addition on uptake of the fluorescent marker ([2]; addition to the culture): increased the uptake of the fluorescent marker
predicted ED95 concentration (tumor cells in culture): 100 μM and 18 200 ng/ml
DFMO exposure versus dose ([3]; between the 500 and 1000 mg/day dose levels): approximately dose-proportional
Change in DFMO exposure with repeat dosing ([3]; human, in vivo): no substantial change
Effect of AMXT 1501 dose level on DFMO exposure ([3]; human, in vivo): no apparent effect
Achievement of predicted DFMO ED95 concentration (100 μM) by oral delivery ([3]; in combination with AMXT 1501): unable to achieve this level
